The subject of data set [1] is HSV-1-deltaTK. Nature of the data set: Plaque number reduction assay, HSV-1-deltaTK on HFFF. In kind it is cell-based. The note with it: HSV-1 thymidine kinase (TK) deletion mutant on HFFF.
Data set [2] deals with human T-lymphoblastoid leukaemic cell line CEM.
Data set [3] relates to promyelocytic leukemia HL 60.
The subject of data set [4] is breast carcinoma MCF7.
Data set [5] relates to cervical carcinoma cells HELA.
Data set [6] deals with human erythroleukaemia K562.
The test system of data set [7] is human malignant melanoma G 361.
The test system of data set [8] is human osteogenic sarcoma HOS.
The subject of data set [9] is normal human fibroblasts BJ.
For data set [10], the target named is CDK1/cyclin B (Homo sapiens, UniProt P06493). Kind of data set: CDK inhibition assay, CDK1/cyclin B. The note with it: read-out: IC50 CDK1; CDK1/cyclin B, 15 μM ATP, histone substrate.
Data set [11] addresses CDK2/cyclin E (Homo sapiens, UniProt P24941). Kind of data set: CDK inhibition assay, CDK2/cyclin E. The note with it: read-out: IC50 CDK2; CDK2/cyclin E, 15 μM ATP, histone substrate.
The target of data set [12] is CDK9/cyclin T (Homo sapiens, UniProt P50750). Nature of the data set: CDK inhibition assay, CDK9/cyclin T. The note with it: read-out: IC50 CDK9; CDK9/cyclin T, 15 μM ATP, histone substrate.
Data set [13] has as its system p53-responsive reporter pRGCΔfoslacZ in human melanoma cell line Arn8. Kind of data set: p53-dependent transcriptional activity, β-galactosidase reporter in Arn8 cells. The note with it: concentration inducing maximum of β-galactosidase activity (p53-responsive reporter).
In data set [14] the test system is VV. In kind it is cell-based, Vaccinia virus strain WR. The note with it: Vaccinia virus on HFFF.
The test system of data set [15] is C-terminal domain (CTD) of RNA polymerase II, serine 2 and serine 5. Nature of the data set: Immunoblotting: phosphorylation of the C-terminal domain of RNA polymerase II. The note with it: 12 hours treatment, cell lines with incorporated SV40, all tested cell lines (FIG. 12A). The format is cell-based. The protocol:
Cell were detached with rubber policeman and washed three times with ice-cold PBS and lysed in buffer (50 mM Tris, pH 7.4, 250 mM NaCl, 5 mM EDTA, 50 mM NaF, 1 mM Na3VO4, 1% Nonidet P40) containing mixture of protease and phosphatase inhibitors (Sigma-Aldrich St Louis, Mo., USA). 20 μg of total proteins were separated by SDS-polyacrylamide gel electrophoresis (SDS-PAGE) on 8% or 10% gels and transferred onto nitrocellulose membranes. Membranes were blocked in 5% milk and 0.1% Tween 20 in PBS and probed overnight with specific monoclonal antibodies or rabbit polyclonal sera. Primary antibodies specific for RNA polymerase II (all from Santa Cruz Biotechnology, California, USA) included: (i) N-20 used at 1 μg/ml, (ii) H14, specific for form phosphorylated at phosphoserine 5, used at 6 μg/ml and (iii) H5, specific for form phosphorylated at phosphoserine 2 used at 4 μg/ml. Additional primary mAb used in immunblots included (iv) anti-p53 (DO-1, in house) used at 1 μg/ml, (v) anti-p21^WAF1 (118, in house), used at 1 μg/ml), (vi) anti-actin (A-2066, Sigma-Aldrich St Louis, Mo., USA) used at 1 μg/ml, (vii) anti-T-antigen (419, in house), used at 1 μg/ml. All primary antibodies were diluted in PBS containing 5% powdered milk; 0.1% Tween 20. Peroxidase conjugated rabbit anti-mouse immunoglobulin or porcine anti-rabbit immunoglobulin antisera (DAKO, Glostrup, Denmark) were used as the secondary antibodies and visualised with ECL reagents (Amersham-Pharmacia, Little Chalfont, UK).
Modulation of expression from the HIV promoter by CDKI treatment may be mediated by transcriptional regulation. At the C-terminus of the largest subunit of RNA Pol II is an important regulatory domain referred to as CTD (C-terminal domain). We therefore investigated the effect of CDKIs on CTD serine 2 and serine 5 phosphorylation. […] Although the functions of CDKs and RNA polymerase II were suppressed, the expression from incorporated viral promoters was enhanced.
Cell were detached with rubber policeman and washed three times with ice-cold PBS and lysed in buffer (50 mM Tris, pH 7.4, 250 mM NaCl, 5 mM EDTA, 50 mM NaF, 1 mM Na3VO4, 1% Nonidet P40) containing mixture of protease and phosphatase inhibitors (Sigma-Aldrich St Louis, Mo., USA). 20 μg of total proteins were separated by SDS-polyacrylamide gel electrophoresis (SDS-PAGE) on 8% or 10% gels and transferred onto nitrocellulose membranes. Membranes were blocked in 5% milk and 0.1% Tween 20 in PBS and probed overnight with specific monoclonal antibodies or rabbit polyclonal sera. […]
Background: In western blotting, separated proteins are transferred to a membrane and probed.

In data set [16] the test system is HSV-1. Kind of data set: Plaque number reduction assay, HSV-1 on HFFF. In kind it is cell-based, Herpes simplex virus type 1 strain 17.
Data set [17] deals with HSV-2. Kind of data set: Plaque number reduction assay, HSV-2 on HFFF. In kind it is cell-based, HSV-2 strain HG52.
Data set [18] deals with HAd4. Kind of data set: Plaque number reduction assay, HAd4 on A549. In kind it is cell-based, Human adenovirus type 4 (HAdV-4) strain RI-6.
The subject of data set [19] is HCMV. Kind of data set: Plaque number reduction assay, HCMV on HFFF. In kind it is cell-based, Human cytomegalovirus strain Toledo.
The subject of data set [20] is MV. Kind of data set: MV syncytium reduction assay in B95a cells. In kind it is cell-based, Measles virus wildtype strain WTFb.
The subject of data set [21] is IV. In kind it is cell-based, Influenza Virus H1N1 strain A/PR/8/34. The note with it: MDCK cells.
The test system of data set [22] is SV40 large T-antigen. In kind it is cell-based. The note with it: SV40-infected MCF-7 and T47D; 20 μM Roscovitine or 8 μM 105 (FIG. 8).
Data set [23] relates to SV40 large T-antigen in COS-1 cells. Nature of the data set: Expression from SV40 promoter incorporated in the cellular genome (COS-1 cells). The format is cell-based. The note with it: COS-1 cells (FIG. 10). The protocol:
Cell were detached with rubber policeman and washed three times with ice-cold PBS and lysed in buffer (50 mM Tris, pH 7.4, 250 mM NaCl, 5 mM EDTA, 50 mM NaF, 1 mM Na3VO4, 1% Nonidet P40) containing mixture of protease and phosphatase inhibitors (Sigma-Aldrich St Louis, Mo., USA). 20 μg of total proteins were separated by SDS-polyacrylamide gel electrophoresis (SDS-PAGE) on 8% or 10% gels and transferred onto nitrocellulose membranes. Membranes were blocked in 5% milk and 0.1% Tween 20 in PBS and probed overnight with specific monoclonal antibodies or rabbit polyclonal sera. Primary antibodies specific for RNA polymerase II (all from Santa Cruz Biotechnology, California, USA) included: (i) N-20 used at […] (ii) H14, specific for form phosphorylated at phosphoserine 5, used at 6 μg/ml and (iii) H5, specific for form phosphorylated at phosphoserine 2 used at 4 μg/ml. Additional primary mAb used in immunblots included (iv) anti-p53 (D0-1, in house, […]) used at 1 μg/ml, (v) anti-p21^WAF1 (118, in house), used at 1 μg/ml), (vi) anti-actin (A-2066, Sigma-Aldrich St Louis, Mo., USA) used at 1 μg/ml, (vii) anti-T-antigen (419, in house, Lane), used at 1 μg/ml. All primary antibodies were diluted in PBS containing 5% powdered milk; 0.1% Tween 20. […]

Data set [24] concerns HIV promoter (pHIV-lacZ, extrachromosomal) in H1299-TAT cells. Kind of data set: β-galactosidase expression from pHIV-lacZ transiently transfected to H1299-TAT. The note with it: H1299-TAT cells (FIG. 11).
For data set [25], the system named is CMV promoter (plasmid pCMV-lacZ). Nature of the data set: β-galactosidase expression from transiently transfected pCMV-lacZ in MCF-7 and T47D. The note with it: transiently transfected MCF-7 and T47D (FIG. 9).
Data set [26] concerns HIV promoter integrated into cellular DNA (H1299-HIV cells). Kind of data set: β-galactosidase expression from pHIV-lacZ incorporated to cellular genome (H1299-HIV). The note with it: HIV promoter integrated into cellular DNA (FIG. 11).
Data set [27] deals with CDK9 (Homo sapiens, UniProt P50750). The note with it: Olomoucine II compared with Roscovitine; cited from earlier work.
Data set [28] has as its system tumor suppressor protein p53. The note with it: Olomoucine II compared with Roscovitine; cited from earlier work.

Molecules are shown by their SMILES.

As a reminder, the IC50 is the concentration that gives 50% inhibition.

CDK9/cyclin T, sequence (P50750 whole entry, species assumed): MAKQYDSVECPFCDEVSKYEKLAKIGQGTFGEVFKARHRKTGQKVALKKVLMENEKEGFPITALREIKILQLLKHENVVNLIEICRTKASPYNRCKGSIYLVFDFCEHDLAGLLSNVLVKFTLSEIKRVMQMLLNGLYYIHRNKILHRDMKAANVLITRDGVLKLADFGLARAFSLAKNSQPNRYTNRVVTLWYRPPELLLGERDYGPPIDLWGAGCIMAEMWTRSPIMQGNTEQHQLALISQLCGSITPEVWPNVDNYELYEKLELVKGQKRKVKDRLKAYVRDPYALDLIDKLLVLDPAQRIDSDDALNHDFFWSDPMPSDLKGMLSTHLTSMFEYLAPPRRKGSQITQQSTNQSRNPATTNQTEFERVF
CDK9/cyclin T, sequence (O60563 whole entry partner, species assumed): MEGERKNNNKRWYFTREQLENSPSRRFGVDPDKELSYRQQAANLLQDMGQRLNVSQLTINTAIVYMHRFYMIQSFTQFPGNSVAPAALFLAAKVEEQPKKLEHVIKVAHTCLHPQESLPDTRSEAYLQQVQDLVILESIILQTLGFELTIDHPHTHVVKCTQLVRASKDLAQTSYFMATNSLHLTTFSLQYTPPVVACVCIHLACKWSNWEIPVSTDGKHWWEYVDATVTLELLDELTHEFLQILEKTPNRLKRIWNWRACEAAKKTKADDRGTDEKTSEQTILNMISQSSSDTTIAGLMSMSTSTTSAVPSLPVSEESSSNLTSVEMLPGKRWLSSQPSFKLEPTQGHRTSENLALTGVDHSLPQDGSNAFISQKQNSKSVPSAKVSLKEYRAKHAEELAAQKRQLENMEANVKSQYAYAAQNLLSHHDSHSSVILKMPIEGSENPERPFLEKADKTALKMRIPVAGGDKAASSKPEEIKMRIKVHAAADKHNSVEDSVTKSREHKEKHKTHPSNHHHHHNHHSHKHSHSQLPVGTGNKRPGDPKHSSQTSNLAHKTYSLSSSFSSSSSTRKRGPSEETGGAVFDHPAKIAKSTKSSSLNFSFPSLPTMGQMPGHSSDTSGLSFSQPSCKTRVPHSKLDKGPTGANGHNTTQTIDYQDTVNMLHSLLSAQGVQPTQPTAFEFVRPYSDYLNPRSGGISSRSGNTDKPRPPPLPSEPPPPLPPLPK
CDK1/cyclin B, sequence (P06493 whole entry, species assumed): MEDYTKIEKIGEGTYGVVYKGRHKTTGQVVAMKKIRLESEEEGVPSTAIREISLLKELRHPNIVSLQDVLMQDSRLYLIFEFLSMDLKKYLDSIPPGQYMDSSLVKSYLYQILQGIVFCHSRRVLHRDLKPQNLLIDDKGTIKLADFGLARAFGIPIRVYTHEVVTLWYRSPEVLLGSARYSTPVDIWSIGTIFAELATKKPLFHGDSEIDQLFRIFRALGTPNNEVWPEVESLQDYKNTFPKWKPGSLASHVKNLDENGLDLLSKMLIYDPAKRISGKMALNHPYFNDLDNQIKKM
CDK1/cyclin B, sequence (P14635 whole entry partner, species assumed): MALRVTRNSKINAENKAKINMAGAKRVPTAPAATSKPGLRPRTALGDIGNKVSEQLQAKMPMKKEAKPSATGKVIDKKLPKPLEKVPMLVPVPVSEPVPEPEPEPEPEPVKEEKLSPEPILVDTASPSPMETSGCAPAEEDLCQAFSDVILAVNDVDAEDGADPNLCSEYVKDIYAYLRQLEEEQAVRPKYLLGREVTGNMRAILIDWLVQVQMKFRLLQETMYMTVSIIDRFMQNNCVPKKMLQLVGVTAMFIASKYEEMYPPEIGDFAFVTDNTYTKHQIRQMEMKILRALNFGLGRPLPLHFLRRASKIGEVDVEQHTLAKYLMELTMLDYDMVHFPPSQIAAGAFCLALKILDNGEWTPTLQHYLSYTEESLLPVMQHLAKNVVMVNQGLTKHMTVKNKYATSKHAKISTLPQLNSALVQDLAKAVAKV
CDK9, sequence (P50750 whole entry, species assumed): as the sequence (P50750 whole entry, species assumed) above
CDK9, sequence (O60563 whole entry partner, species assumed): as the sequence (O60563 whole entry partner, species assumed) above

Take `Nc1nc2c(ncn2COCCO)c(=O)[nH]1` [Acyclovir, 9-[(2-Hydroxyethoxy)methyl]guanine, reference compound]: the “inhibition of virus replication (in words)” value (“inhibition” for short) in data set [1] is “resistant”.

Turning to `CC(C)n1cnc2c(NCc3ccccc3N)nc(NC3CCCCC3N)nc21` (stereo not shown) [Compound 101], the IC50 worked out at 7 µM in data set [2]; 24 µM in data set [3]; 15.3 µM in data set [4]; 15 µM in [5]; 27 µM in [6]; 14 µM in data set [7]. Further, the 50% inhibitory concentration (IC50) in data set [8] was 25 µM; in data set [9], more than 167 µM; in data set [10], 0.6 µM; in data set [11], 0.4 µM; in data set [12], 0.02 µM. For the same molecule, in data set [13], the “Max. β-Gal. Activtity Conc.” value was found to be 22 µM.

On to `O=c1[nH]c(=O)n([C@H]2C[C@H](O)[C@@H](CO)O2)cc1I` [Iododeoxyuridine, 1-(2-Deoxy-β-D-ribofuranosyl)-5-iodouracil], for which the “inhibition” value in [14] is reported as “inhibited equally well”.

For the molecule `CC[C@H](CO)Nc1nc(NCc2ccccc2)c2ncn(C(C)C)c2n1` [Roscovitine, 2-(R)-(1-Ethyl-2-hydroxyethylamino)-6-benzylamino-9-isopropylpurine, reference compound], the “phosphorylation of both serine 2 and serine 5 of RNA polymerase II CTD” value in [15] is “inhibited”. In addition, the “inhibition” value in data set [16] is reported as “did not inhibit”; in [17], “did not inhibit”; in data set [14], “no overt effect”; in data set [18], “inhibited HAd4 replication”; in data set [19], “equally sensitive”; in data set [20], “ineffective”. In addition, the “inhibition” value in data set [21] was “ineffective”. Moreover, the “level of large T-antigen” value in data set [22] was “reduced level”. In [23], the “large T-antigen expression” value is on record as “stimulated large T-antigen expression”. In [24], the “expression from pHIV-lacZ (extrachromosomal location), β-galactosidase readout” value is “inhibited”. Besides, the “expression from CMV promoter (β-galactosidase activity)” value in data set [25] is recorded as “inhibited expression”. Moreover, the “increase of reporter readout” value in [26] was 2.5 times.

Consider `CC[C@H](CO)Nc1nc(NCc2ccccc2O)c2ncn(C(C)C)c2n1` [Olomoucine II], for which the “higher inhibitory activity for CDK9” value in data set [27] was 10 fold. The “lower concentrations inducing nuclear accumulation and transcriptional activation of p53” value in [28] is reported as 2-3 fold.

Take `CC(C)n1cnc2c(NCc3cc(N)ccc3N)nc(NC3CCC(O)CC3)nc21` (stereo not shown) [Compound 161]: the IC50 is 9 µM in [2]; 26 µM in data set [3]; 7 µM in data set [4]; 12 µM in data set [5]; 18 µM in data set [6]; 14 µM in [7]. For the same molecule, the IC50 in data set [8] was 26 µM; in data set [9] it was more than 167 µM; in data set [10] it was 0.9 µM; in [11], 0.6 µM; in data set [12] it was 0.08 µM. Besides, the “Max. β-Gal. Activtity Conc.” value in data set [13] stood at 20 µM.

As to `Cn1cnc2c(NCc3ccccc3)nc(NC3CCC(N)CC3)nc21` (stereo not shown) [Compound A1141], the IC50 in data set [2] came to 43 µM; in data set [3] it was 75 µM; in data set [4] it was 55 µM; in [5] it was 48 µM; in data set [6], 91 µM; in data set [7], 74 µM. Further, the IC50 was 86 µM in [8]; more than 167 µM in [9]; 3.1 µM in [10]; 3.4 µM in [11]; 3.3 µM in data set [12].

Values taken from US9023857B2, “Substituted 6-(2-aminobenzylamino)purine derivatives, their use as medicaments and preparations containing these compounds” (Univerzita Palackeho V Olomouci, priority 2009, dated 2015).
